Reference: patent publication US11761023B2, “Analyzing and using motility kinematics of microorganisms” (PhAST Corp., priority 2017, dated 2023)
Values after ≈ are worked out from the molar mass of the structure shown. Read-outs that look alike come from different tables or passages of the source.

Key:
Type in all cases: cell-based, Pseudomonas aeruginosa
P. aeruginosa PA14 = assay: Single-cell swimming kinematics (ASK software, phase contrast video microscopy) upon antibiotic exposure; conditions: for change in swimming speed compared to antibiotic-free control: FIG. 12
[1] = system: susceptible clinical isolate of P. aeruginosa (PSA 9/53); assay: Single-cell swimming speed (ASK software) relative to antibiotic-free control; conditions: ciprofloxacin 4 μg/ml, meropenem 0.5 μg/ml, gentamicin 8 μg/ml; FIG. 17
From the text: The swimming speed (y axis) was normalized by the speed in the control (which thus becomes the dashed line at 1).

[2] = system: clinical isolate P. aeruginosa 9/53; assay: MIC by broth microdilution assay
P. aeruginosa ATCC 27853 = assay: MIC by broth microdilution assay

Compound	change in swimming speed compared to antibiotic-free control (P. aeruginosa PA14; 0.1 μg/ml)	decrease of mean swimming speed compared to the antibiotic-free control (P. aeruginosa PA14; 1 μg/ml, after 30 min)	mean swimming speed of exposed cells (P. aeruginosa PA14; 1 μg/ml, after 30 min)	decrease of mean swimming speed compared to the antibiotic-free control (P. aeruginosa PA14; 1 μg/ml, after 50 min)	mean swimming speed of exposed cells (P. aeruginosa PA14; 1 μg/ml, after 50 min)	decrease of mean swimming speed compared to the antibiotic-free control (P. aeruginosa PA14; 1 μg/ml, after 70 min)	mean swimming speed of exposed cells (P. aeruginosa PA14; 1 μg/ml, after 70 min)	sensitivity of motility (swimming speed) to the antibiotic [1]	MIC ([2]; Pseudomonas aeruginosa, read-out: MIC)	change in swimming speed compared to antibiotic-free control (P. aeruginosa PA14; 1 μg/ml)	change in swimming speed compared to antibiotic-free control (P. aeruginosa PA14; 10 μg/ml)	MIC [2]	MIC (P. aeruginosa ATCC 27853)
CC(C)(O/N=C(\C(=O)N[C@@H]1C(=O)N2C(C(=O)[O-])=C(C[n+]3ccccc3)CS[C@H]12)c1csc(N)n1)C(=O)O [ceftazidime]	no significant changes	14%	42.6 μm/s	23%	35.4 μm/s	33%	31.2 μm/s						
C[C@@H](O)[C@H]1C(=O)N2C(C(=O)O)=C(S[C@@H]3CN[C@H](C(=O)N(C)C)C3)[C@H](C)[C@H]12 [meropenem]								less so	0.5 mg/L (≈ 1.3 µM)				
gentamicin	not							very sensitive		not	significantly reduced	1 mg/L	1 mg/L
